# Assay results from article PMC9506485, “Synthesis and Structure–Activity Relationships for the Anti-Mycobacterial Activity of 3-Phenyl-N-(Pyridin-2-ylmethyl)Pyrazolo[1,5-a]Pyrimidin-7-Amines” (Pharmaceuticals, 2022).
# Columns and labels:
# [1] = system: Mycobacterium tuberculosis (strain H37Rv); test: MABA minimum inhibitory concentration assay (aerobic/replicating); assay type: cell-based; settings: Mycobacterium tuberculosis; M.tb H37Rv, aerobic/replicating; 90% inhibition of growth
# [2] = target: hERG (Homo sapiens, UniProt Q12809); test: hERG channel blockade, manual patch clamp; assay type: cell-based; settings: cloned hERG potassium channels, room temperature; for inhibition at 0.3 µM: read-out: hERG % inhib. at 0.3 µM; for inhibition at 1 µM: read-out: hERG % inhib. at 1.0 µM
# Sequence of hERG (Q12809 whole entry): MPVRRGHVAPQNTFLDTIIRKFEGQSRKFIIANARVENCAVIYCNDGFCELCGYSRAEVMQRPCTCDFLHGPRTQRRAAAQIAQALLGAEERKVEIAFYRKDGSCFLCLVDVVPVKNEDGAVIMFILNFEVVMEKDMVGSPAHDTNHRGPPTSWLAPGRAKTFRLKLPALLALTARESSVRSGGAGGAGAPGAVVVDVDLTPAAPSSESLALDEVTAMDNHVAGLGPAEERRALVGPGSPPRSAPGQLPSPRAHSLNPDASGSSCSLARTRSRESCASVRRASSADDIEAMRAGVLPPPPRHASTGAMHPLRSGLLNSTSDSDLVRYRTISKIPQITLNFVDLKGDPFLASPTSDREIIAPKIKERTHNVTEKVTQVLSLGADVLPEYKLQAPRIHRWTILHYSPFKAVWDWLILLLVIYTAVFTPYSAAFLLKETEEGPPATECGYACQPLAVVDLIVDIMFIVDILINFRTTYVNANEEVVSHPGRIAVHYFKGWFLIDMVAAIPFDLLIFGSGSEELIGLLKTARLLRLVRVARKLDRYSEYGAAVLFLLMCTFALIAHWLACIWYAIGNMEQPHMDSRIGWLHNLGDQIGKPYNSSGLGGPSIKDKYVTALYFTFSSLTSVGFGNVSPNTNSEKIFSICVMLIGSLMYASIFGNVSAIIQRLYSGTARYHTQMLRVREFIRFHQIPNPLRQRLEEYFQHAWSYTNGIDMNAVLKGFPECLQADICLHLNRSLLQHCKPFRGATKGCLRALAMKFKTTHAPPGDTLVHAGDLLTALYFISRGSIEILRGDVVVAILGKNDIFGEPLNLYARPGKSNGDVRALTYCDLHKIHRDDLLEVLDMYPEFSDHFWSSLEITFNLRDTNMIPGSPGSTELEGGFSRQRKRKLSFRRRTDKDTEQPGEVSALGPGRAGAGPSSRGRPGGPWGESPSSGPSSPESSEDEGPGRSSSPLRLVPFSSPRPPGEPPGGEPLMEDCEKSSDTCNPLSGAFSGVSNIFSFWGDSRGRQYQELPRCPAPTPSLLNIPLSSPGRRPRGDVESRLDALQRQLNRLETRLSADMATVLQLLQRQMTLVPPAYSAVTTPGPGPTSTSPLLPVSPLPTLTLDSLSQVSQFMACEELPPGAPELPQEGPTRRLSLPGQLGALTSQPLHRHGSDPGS
# Procedure: Selected compounds were evaluated for hERG channel blockade (Table 4) by WuXi AppTec (Shanghai) Co., Ltd. This was carried out using cloned hERG potassium channels according to their standard manual patch clamp method. Two concentrations (0.3 and 1.0 µM) were tested (at room temperature), and at least three replicates were obtained for each. Amitryptyline was used as a standard.
# [3] = Microsomal stability, human liver microsomes; assay type: in vitro ADME; settings: pH 7.4; for microsomal CLint at 1 μM: human liver microsomes, read-out: HLM Clint(mic)
# Procedure: (§1) Assays were performed by WuXi AppTec (Shanghai) Co., Ltd. The test compounds (Table 4) (at 1 μM) were incubated at 37 °C with liver microsomes from human or CD-1 mice in the presence of a NADPH regenerating system and phosphate buffer (100 mM, pH 7.4) at 0.5 mg/mL microsomal protein (the positive controls were testosterone, propafenone, and diclofenac). Samples were removed at time intervals of 0, 5, 10, 20, 30, and 60 min and immediately mixed with cold CH3CN (containing 0.1 μg/mL of tolbutamide as an internal standard) and then centrifuged prior to analysis by LCMS/MS.
# [4] = system: Mycobacterium tuberculosis (strain H37Rv); test: LORA minimum inhibitory concentration assay (low-oxygen/non-replicating); settings: M.tb H37Rv, 90% inhibition of growth
# [5] = system: VERO green monkey kidney cells; test: VERO mammalian cell toxicity assay; assay type: cell-based; settings: Chlorocebus sabaeus; inhibition of growth of VERO green monkey kidney epithelial cells
# [6] = Microsomal stability, mouse liver microsomes; assay type: in vitro ADME; settings: for CLint scaled at 1 μM / half-life at 1 μM: CD-1, mouse, microsomes, pH 7.4; for microsomal CLint at 1 μM: CD-1, pH 7.4, mouse liver microsomes, read-out: MLM Clint(mic)
# Procedure: as §1
# [7] = human/mouse liver microsomes not distinguished, read-out: T½ values (microsomal stability)
structure (smiles),measurement,setting,value
"Fc1ccc(-c2cnn3c(NCc4ccccn4)cc(-c4ccoc4)nc23)cc1 [Compound 44, 3-(4-Fluorophenyl)-5-(furan-3-yl)-N-(pyridin-2-ylmethyl)pyrazolo[1,5-a]pyrimidin-7-amine]",MIC90,[1],0.96 µg/mL
same,inhibition at 0.3 µM,[2],4%
same,inhibition at 1 µM,[2],14%
same,CLint scaled at 1 μM,"[3]; human, microsomes",66 mL/min/kg
same,half-life at 1 μM,"[3]; human, microsomes",0.317 h
same,microsomal CLint at 1 μM,[3],74 µL/min/mg
same,half-life at 1 μM,[3]; [7],< 1.42 h
same,MIC90 LORA,[4],0.16 µg/mL
same,IC50,[5],> 32 µg/mL
same,CLint scaled at 1 μM,[6],570 mL/min/kg
same,half-life at 1 μM,[6],0.167 h
same,microsomal CLint at 1 μM,[6],144 µL/min/mg
"Fc1ccc(-c2cnn3c(NCc4ccccn4)cc(-c4ccccc4F)nc23)cc1 [Compound 28, 5-(2-Fluorophenyl)-3-(4-fluorophenyl)-N-(pyridin-2-ylmethyl)pyrazolo[1,5-a]pyrimidin-7-amine]",MIC90,[1],1.79 µg/mL
same,inhibition at 0.3 µM,[2],17%
same,inhibition at 1 µM,[2],36%
same,CLint scaled at 1 μM,"[3]; human, microsomes",18 mL/min/kg
same,half-life at 1 μM,"[3]; human, microsomes",1.15 h
same,microsomal CLint at 1 μM,[3],20 µL/min/mg
same,half-life at 1 μM,[3]; [7],< 1.42 h
same,MIC90 LORA,[4],0.22 µg/mL
same,IC50,[5],> 32 µg/mL
same,CLint scaled at 1 μM,[6],113 mL/min/kg
same,half-life at 1 μM,[6],0.817 h
same,microsomal CLint at 1 μM,[6],29 µL/min/mg
"COc1ccc(-c2cc(NCc3ccccn3)n3ncc(-c4ccc(F)cc4)c3n2)cc1 [Compound 34, 3-(4-Fluorophenyl)-5-(4-methoxyphenyl)-N-(pyridin-2-ylmethyl)pyrazolo[1,5-a]pyrimidin-7-amine]",MIC90,[1],1.5 µg/mL
same,inhibition at 0.3 µM,[2],0%
same,inhibition at 1 µM,[2],1%
same,CLint scaled at 1 μM,"[3]; human, microsomes",16 mL/min/kg
same,half-life at 1 μM,"[3]; human, microsomes",1.28 h
same,microsomal CLint at 1 μM,[3],18 µL/min/mg
same,half-life at 1 μM,[3]; [7],< 1.42 h
same,MIC90 LORA,[4],0.25 µg/mL
same,IC50,[5],> 32 µg/mL
same,CLint scaled at 1 μM,[6],88 mL/min/kg
same,half-life at 1 μM,[6],1.05 h
same,microsomal CLint at 1 μM,[6],22 µL/min/mg
"Fc1ccc(-c2cnn3c(NCc4ccccn4)cc(-c4cccnc4)nc23)cc1 [Compound 39, 3-(4-Fluorophenyl)-N-(pyridin-2-ylmethyl)-5-(pyridin-3-yl)pyrazolo[1,5-a]pyrimidin-7-amine]",MIC90,[1],2.3 µg/mL
same,inhibition at 0.3 µM,[2],16%
same,inhibition at 1 µM,[2],46%
same,CLint scaled at 1 μM,"[3]; human, microsomes",57 mL/min/kg
same,half-life at 1 μM,"[3]; human, microsomes",0.367 h
same,microsomal CLint at 1 μM,[3],63 µL/min/mg
same,half-life at 1 μM,[3]; [7],< 1.42 h
same,MIC90 LORA,[4],0.30 µg/mL
same,IC50,[5],> 32 µg/mL
same,CLint scaled at 1 μM,[6],445 mL/min/kg
same,half-life at 1 μM,[6],0.2 h
same,microsomal CLint at 1 μM,[6],112 µL/min/mg
"Fc1ccc(-c2cnn3c(NCc4ccccn4)cc(-c4ccsc4)nc23)cc1 [Compound 42, 3-(4-Fluorophenyl)-N-(pyridin-2-ylmethyl)-5-(thiophen-3-yl)pyrazolo[1,5-a]pyrimidin-7-amine]",MIC90,[1],1.4 µg/mL
same,inhibition at 0.3 µM,[2],9%
same,inhibition at 1 µM,[2],24%
same,CLint scaled at 1 μM,"[3]; human, microsomes",43 mL/min/kg
same,half-life at 1 μM,"[3]; human, microsomes",0.483 h
same,microsomal CLint at 1 μM,[3],47 µL/min/mg
same,half-life at 1 μM,[3]; [7],< 1.42 h
same,MIC90 LORA,[4],0.22 µg/mL
same,IC50,[5],> 32 µg/mL
same,CLint scaled at 1 μM,[6],298 mL/min/kg
same,half-life at 1 μM,[6],0.3 h
same,microsomal CLint at 1 μM,[6],75 µL/min/mg
"CC(C)c1ccc(-c2cc(NCc3ccccn3)n3ncc(-c4ccc(F)cc4)c3n2)cc1 [Compound 35, 3-(4-Fluorophenyl)-5-(4-isopropylphenyl)-N-(pyridin-2-ylmethyl)pyrazolo[1,5-a]pyrimidin-7-amine]",MIC90,[1],1.8 µg/mL
same,inhibition at 0.3 µM,[2],1%
same,inhibition at 1 µM,[2],1%
same,CLint scaled at 1 μM,"[3]; human, microsomes",< 8.6 mL/min/kg
same,half-life at 1 μM,"[3]; human, microsomes",> 2.42 h
same,microsomal CLint at 1 μM,[3],< 9.6 µL/min/mg
same,MIC90 LORA,[4],1.0 µg/mL
same,IC50,[5],> 32 µg/mL
same,CLint scaled at 1 μM,[6],< 38 mL/min/kg
same,half-life at 1 μM,[6],> 2.42 h
same,microsomal CLint at 1 μM,[6],< 9.6 µL/min/mg
"Fc1ccc(-c2cnn3c(NCc4ccc(F)cn4)cc(-c4ccccc4)nc23)cc1 [Compound 52, 3-(4-Fluorophenyl)-N-((5-fluoropyridin-2-yl)methyl)-5-phenylpyrazolo[1,5-a]pyrimidin-7-amine]",MIC90,[1],3.7 µg/mL
same,melting point,,118 to 120 °C
same,inhibition at 0.3 µM,[2],0.8%
same,inhibition at 1 µM,[2],11%
same,CLint scaled at 1 μM,"[3]; human, microsomes",11 mL/min/kg
same,half-life at 1 μM,"[3]; human, microsomes",1.81 h
same,microsomal CLint at 1 μM,[3],13 µL/min/mg
same,MIC90 LORA,[4],3.4 µg/mL
same,IC50,[5],> 32 µg/mL
same,CLint scaled at 1 μM,[6],50.3 mL/min/kg
same,half-life at 1 μM,[6],1.82 h
same,microsomal CLint at 1 μM,[6],12.7 µL/min/mg
